Measured values reported in patent US11746087B1, “C4-carboxylic acid-substituted tryptamine derivatives and methods of using” (priority 2022, dated 2023).
Like-named read-outs stand apart in the source and are kept apart here.

Tests used:
[1] = Mouse PK study (IV and PO), plasma parent compound and psilocin by LC-MS/MS; type: in vivo; details: male, C57Bl/6, mouse, plasma; for half-life / MRT inf / AUC(0-t) / Cmax / Tmax / AUC(0-inf): C(I) in plasma; for half-life: read-out: Apparent t1/2 (converted); for MRT inf: read-out: MRT0-inf; for AUC(0-t): read-out: AUC0-tlast; for Cmax: read-out: Cmax; for Tmax: read-out: tmax; for AUC(0-inf): read-out: AUC0-inf
From the text: Briefly, the procedure was as follows. […] 19, 2022.

[2] = target: AVPR1A (Homo sapiens, UniProt P37288); assay: Calcium secondary messenger assay, agonist mode; type: cell-based
Chain of AVPR1A (P37288 whole entry): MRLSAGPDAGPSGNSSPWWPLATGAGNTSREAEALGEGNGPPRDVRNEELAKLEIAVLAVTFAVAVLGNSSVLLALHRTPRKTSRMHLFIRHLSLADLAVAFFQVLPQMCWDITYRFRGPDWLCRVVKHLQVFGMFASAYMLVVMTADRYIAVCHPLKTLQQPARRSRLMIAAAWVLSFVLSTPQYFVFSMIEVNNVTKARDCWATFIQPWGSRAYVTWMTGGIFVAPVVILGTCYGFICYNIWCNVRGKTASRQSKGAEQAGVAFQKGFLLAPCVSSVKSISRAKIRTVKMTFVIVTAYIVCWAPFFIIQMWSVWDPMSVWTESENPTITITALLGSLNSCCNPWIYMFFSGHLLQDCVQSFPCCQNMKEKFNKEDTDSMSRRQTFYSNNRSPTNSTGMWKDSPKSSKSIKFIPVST

[3] = iv, 1 mg/kg, 1 mg/kg i.v. C(I), per animal
[4] = oral, 1 mg/kg, 1 mg/kg oral C(I), Mean ± SD, read-out: Plasma concentration of C(I)
[5] = oral, 1 mg/kg, 1 mg/kg oral C(I), mean (n = 2), read-out: Plasma concentration of C(I)
[6] = oral, 1 mg/kg, 1 mg/kg oral C(I), per animal, BLQ <0.5 ng/mL, read-out: Plasma concentration of C(I)
[7] = oral, 3 mg/kg, 3 mg/kg oral C(I), Mean ± SD, read-out: Plasma concentration of C(I)
[8] = oral, 3 mg/kg, 3 mg/kg oral C(I), per animal, BLQ <0.5 ng/mL, read-out: Plasma concentration of C(I)
[9] = oral, 10 mg/kg, 10 mg/kg oral C(I), Mean ± SD, read-out: Plasma concentration of C(I)
[10] = oral, 10 mg/kg, 10 mg/kg oral C(I), per animal, BLQ <0.5 ng/mL, read-out: Plasma concentration of C(I)
[11] = po, 1 mg/kg, 1 mg/kg oral C(I), Mean ± SD
[12] = po, 3 mg/kg, 3 mg/kg oral C(I), Mean ± SD
[13] = po, 3 mg/kg, 3 mg/kg oral C(I), mean (n = 1)
[14] = po, 3 mg/kg, 3 mg/kg oral C(I), per animal
[15] = po, 10 mg/kg, 10 mg/kg oral C(I), Mean ± SD
[16] = po, 10 mg/kg, 10 mg/kg oral C(I), mean (n = 2)
[17] = po, 10 mg/kg, 10 mg/kg oral C(I), per animal

Molecule `CN(C)CCc1c[nH]c2cccc(OC(=O)c3ccc(Br)cc3)c12` [C(I)] has a half-life [1, 3] of 1.14 h, an MRT inf [1, 3] of 0.568 h and a concentration at 0.25 h [1, 4] of 0.646 ± 0.251 ng/mL. For the same molecule, the concentration at 0.5 h [1, 4] was 0.877 ± 0.376 ng/mL, the concentration at 1 h [1, 5] was 0.898 ng/mL and the concentration at 1 h [1, 6] was 0.775 ng/mL. The concentration at 2 h [1, 5] was 0.537 ng/mL, the concentration at 2 h [1, 6] was 0.474 ng/mL and the concentration at 4 h ([1]; oral, 1 mg/kg, 1 mg/kg oral C(I), mean (n = 1), read-out: Plasma concentration of C(I)) was 0.352 ng/mL. The concentration at 4 h [1, 6] was 0.352 ng/mL, the concentration at 0.25 h [1, 7] was 2.03 ± 0.37 ng/mL and the concentration at 0.25 h [1, 8] was 1.62 ng/mL. The concentration at 0.5 h [1, 7] was 2.03 ± 0.112 ng/mL, the concentration at 0.5 h [1, 8] was 1.95 ng/mL and the concentration at 1 h [1, 7] was 1.54 ± 0.206 ng/mL. The concentration at 1 h [1, 8] was 1.74 ng/mL, the concentration at 2 h [1, 7] was 0.786 ± 0.127 ng/mL and the concentration at 2 h [1, 8] was 0.932 ng/mL. The concentration at 4 h [1, 7] was 0.907 ± 0.357 ng/mL, the concentration at 6 h [1, 7] was 0.31 ± 0.0605 ng/mL and the concentration at 6 h [1, 8] was 0.371 ng/mL. The concentration at 0.25 h [1, 9] was 5.67 ± 1.77 ng/mL, the concentration at 0.25 h [1, 10] was 7.2 ng/mL and the concentration at 0.5 h [1, 9] was 8.14 ± 2.42 ng/mL. It also gave a concentration at 0.5 h [1, 10] of 6.41 ng/mL, a concentration at 1 h [1, 9] of 5.51 ± 1.85 ng/mL and a concentration at 1 h [1, 10] of 3.79 ng/mL. For the same molecule, the concentration at 2 h [1, 9] was 2.59 ± 1.17 ng/mL, the concentration at 4 h [1, 9] was 2.26 ± 0.673 ng/mL and the concentration at 4 h [1, 10] was 1.71 ng/mL. It also gave a concentration at 6 h [1, 9] of 0.89 ± 0.265 ng/mL, a concentration at 6 h [1, 10] of 0.83 ng/mL and a concentration at 8 h ([1]; oral, 10 mg/kg, 10 mg/kg oral C(I), 8 h, Mean ± SD, read-out: Plasma concentration of C(I)) of 0.545 ± 0.481 ng/mL. For the same molecule, the AUC(0-t) [1, 11] was 1.34 ± 1.02 ng·h/mL, the Cmax [1, 11] was 0.877 ± 0.376 ng/mL and the Tmax [1, 11] was 0.5 h. For the same molecule, the Tmax ([1]; po, 1 mg/kg, 1 mg/kg oral C(I), per animal) was 0.5 h, the AUC(0-t) [1, 12] was 5.54 ± 0.33 ng·h/mL and the Cmax [1, 12] was 2.15 ± 0.195 ng/mL. It also gave a Tmax [1, 12] of 0.417 ± 0.144 h, an AUC(0-inf) [1, 13] of 6.87 ng·h/mL and a half-life [1, 13] of 3.01 h. It also gave an MRT inf [1, 13] of 4.12 h, a half-life ([1]; po, 3 mg/kg, 3 mg/kg oral C(I), per animal, M43 estimate may not be accurate) of 3.01 h and an AUC(0-inf) [1, 14] of 6.87 ng·h/mL. The AUC(0-t) [1, 14] was 5.26 ng·h/mL, the Cmax [1, 14] was 1.95 ng/mL and the MRT inf [1, 14] was 4.12 h. The Tmax [1, 14] was 0.5 h, the AUC(0-t) [1, 15] was 18.7 ± 4.25 ng·h/mL and the Cmax [1, 15] was 8.4 ± 2.17 ng/mL. It also gave a Tmax [1, 15] of 0.417 ± 0.144 h, an AUC(0-inf) [1, 16] of 20.2 ng·h/mL and a half-life [1, 16] of 1.31 h. It also gave an MRT inf [1, 16] of 2.53 h, an AUC(0-inf) [1, 17] of 16.3 ng·h/mL and an AUC(0-t) [1, 17] of 15.8 ng·h/mL. The half-life [1, 17] was 1.45 h, the Cmax [1, 17] was 7.2 ng/mL and the MRT inf [1, 17] was 2.66 h. For the same molecule, the Tmax [1, 17] was 0.25 h and the EC50 [2] was > 100 µM.
